Assay results taken from patent publication US4603198A, “Cephalosporin derivatives” (Daiichi Seiyaku Co., Ltd., priority 1982, dated 1986).
Converted amounts (≈) assume the structure as drawn. Counter-ions that a name gives are not always drawn.

Key:
E. coli, NIHJ = assay: antibacterial activity (in vitro), Minimum Inhibitory Concentration; assay type: cell-based; details: Escherichia coli, 10^6 /ml of bacteria were seeded, syn isomers
From the text: (§1) The antibacterial activity (in vitro) of the preferred compounds of this invention are shown in the following Table 1 in comparison with known compounds having a structure similar to that of the compounds of this invention. All compounds of Table 1 are syn isomers.
(§2) Minimum Inhibitory Concentration (MIC, mcg/ml) (10^6 /ml of bacteria

Pr. vulgaris, 08601 = assay: as above; assay type: cell-based; details: Proteus vulgaris, 10^6 /ml of bacteria were seeded, syn isomers
From the text: as §1, §2

Ps. aeruginosa, 32104 = assay: as above; assay type: cell-based; details: Pseudomonas aeruginosa, 10^6 /ml of bacteria were seeded, syn isomers
From the text: as §1, §2

Ps. aeruginosa, 32121 = assay: as above; assay type: cell-based; details: Pseudomonas aeruginosa, 10^6 /ml of bacteria were seeded, syn isomers
From the text: as §1, §2

S. aureus, 209p = assay: as above; assay type: cell-based; details: Staphylococcus aureus, 10^6 /ml of bacteria were seeded, syn isomers
From the text: as §1, §2

Ser. marcescens, 10104 = assay: as above; assay type: cell-based; details: Serratia marcescens, 10^6 /ml of bacteria were seeded, syn isomers
From the text: as §1, §2

[1] = acute toxicity in mice (i.v.); details: mouse, in vivo, iv

Compound	MIC (E. coli, NIHJ) [µg/mL]	MIC (Pr. vulgaris, 08601) [µg/mL]	MIC (Ps. aeruginosa, 32104) [µg/mL]	MIC (Ps. aeruginosa, 32121) [µg/mL]	MIC (S. aureus, 209p) [µg/mL]	MIC (Ser. marcescens, 10104) [µg/mL]	LD50 [1] [mg/kg]
Nc1nc(/C(=N/OCc2c[nH]cn2)C(=O)N[C@@H]2C(=O)N3C(C(=O)[O-])=C(C[n+]4ccccc4)CS[C@H]23)cs1 [IA, 7β-(2-(2-aminothiazol-4-yl)-2-((imidazol-4-yl)methoxyimino)acetamido)-3-(1-pyridinio)methyl-3-cephem-4-carboxylate trihydrochloride]	0.1	0.1	1.56	1.56	0.2	0.1	> 2500
NC(=O)c1cc[n+](CC2=C(C(=O)[O-])N3C(=O)[C@@H](NC(=O)/C(=N\OCc4c[nH]cn4)c4csc(N)n4)[C@H]3SC2)cc1 [IB, 7β-(2-(2-aminothiazol-4-yl)-2-((imidazol-4-yl)methoxyimino)acetamido)-3-(4-carbamoyl-1-pyridinio)methyl-3-cephem-4-carboxylate trihydrochloride]	< 0.1	0.2	1.56	12.5	1.56	0.2	
Nc1nc(/C(=N/OCc2cc[nH]n2)C(=O)N[C@@H]2C(=O)N3C(C(=O)[O-])=C(C[n+]4ccccc4)CS[C@H]23)cs1 [IC, 7β-(2-(2-aminothiazol-4-yl)-2-((pyrazol-3-yl)methoxyimino)acetamido)-3-(1-pyridinio)methyl-3-cephem-4-carboxylate]	< 0.1	0.1 (≈ 0.185 µM)	1.56 (≈ 2.89 µM)	3.13 (≈ 5.79 µM)	0.39 (≈ 0.721 µM)	0.2 (≈ 0.37 µM)	> 2000
Cn1nnnc1SCC1=C(C(=O)O)N2C(=O)[C@@H](NC(=O)/C(=N\OCc3c[nH]cn3)c3csc(N)n3)[C@H]2SC1 [ID, 7β-(2-(2-aminothiazol-4-yl)-2-((imidazol-4-yl)methoxyimino)acetamido)-3-(1-methyl-1H-tetrazol-5-yl)thiomethyl-3-cephem-4-carboxylic acid dihydrochloride]	< 0.1	< 0.1	12.5	3.13	0.78	0.39	
Nc1nc(/C(=N/OCc2cn[nH]c2)C(=O)N[C@@H]2C(=O)N3C(C(=O)[O-])=C(C[n+]4ccccc4)CS[C@H]23)cs1 [IE, 7β-(2-(2-aminothiazol-4-yl)-2-((pyrazol-4-yl)methoxyimino)acetamido)-3-(1-pyridinio)methyl-3-cephem-4-carboxylate]	< 0.1	0.1 (≈ 0.185 µM)	6.25 (≈ 11.6 µM)	3.13 (≈ 5.79 µM)	0.2 (≈ 0.37 µM)	0.2 (≈ 0.37 µM)	
Cc1[nH]cnc1CO/N=C(\C(=O)N[C@@H]1C(=O)N2C(C(=O)[O-])=C(C[n+]3ccccc3)CS[C@H]12)c1csc(N)n1 [IF, 7β-(2-(2-aminothiazol-4-yl)-2-((5-methylimidazol-4-yl)methoxyimino)acetamido)-3-(1-pyridino)methyl-3-cephem-4-carboxylate trihydrochloride]	< 0.1	0.1	3.13	3.13	0.78	0.2	
Cc1cc[n+](CC2=C(C(=O)[O-])N3C(=O)[C@@H](NC(=O)/C(=N\OCc4c[nH]cn4)c4csc(N)n4)[C@H]3SC2)cc1 [IG, 7β-(2-(2-aminothiazol-4-yl)-2-((imidazol-4-yl)methoxyimino)acetamido)-3-(4-methyl-1-pyridinio)methyl-3-cephem-4-carboxylate trihydrochloride]	< 0.1	0.2	3.13	3.13	1.56	0.1	
CC(=O)OCC1=C(C(=O)O)N2C(=O)[C@@H](NC(=O)/C(=N\OCc3c[nH]cn3)c3csc(N)n3)[C@H]2SC1 [IH, 7β-(2-(2-aminothiazol-4-yl)-2-((imidazol-4-yl)methoxyimino)acetamido)-3-acetoxymethyl-3-cephem-4-carboxylic acid dihydrochloride]	< 0.1	< 0.1	12.5	6.25	0.78	0.78	
CO/N=C(\C(=O)N[C@@H]1C(=O)N2C(C(=O)O)=C(COC(C)=O)CS[C@H]12)c1csc(N)n1 [a, Cephotaxim, reference compound]	< 0.1	< 0.1	25 (≈ 54.9 µM)	12.5 (≈ 27.4 µM)	3.13 (≈ 6.87 µM)	0.39 (≈ 0.856 µM)	
Nc1nc(/C(=N/OCc2nnn[nH]2)C(=O)N[C@@H]2C(=O)N3C(C(=O)[O-])=C(C[n+]4ccccc4)CS[C@H]23)cs1 [b, 7β-(2-(2-aminothiazol-4-yl)-2-((1H-tetrazol-5-yl)methoxyimino)acetamido)-3-pyridiniomethyl-3-cephem-4-carboxylate, reference compound]	0.1 (≈ 0.184 µM)	0.1 (≈ 0.184 µM)	12.5 (≈ 23 µM)	50 (≈ 92.2 µM)	3.13 (≈ 5.77 µM)	0.39 (≈ 0.719 µM)	
Nc1nc(/C(=N/OCc2ncc[nH]2)C(=O)N[C@@H]2C(=O)N3C(C(=O)[O-])=C(C[n+]4ccccc4)CS[C@H]23)cs1 [c, 7β-(2-(2-aminothiazol-4-yl)-2-((imidazol-2-yl)methoxyimino)acetamido)-3-pyridiniomethyl-3-cephem-4-carboxylate, reference compound]	0.2 (≈ 0.37 µM)	0.39 (≈ 0.721 µM)	6.25 (≈ 11.6 µM)	25 (≈ 46.2 µM)	1.56 (≈ 2.89 µM)	0.2 (≈ 0.37 µM)	
